According to patent US11732029B2, “Methods and compositions for the treatment of wounds” (The University of Chicago, priority 2017, dated 2023):
“Also recorded” adds a separate entry of the source.

T1: VEGF-A145 (Homo sapiens, UniProt P15692)
T1 construct: All GFs and chemokines were purchased in their mature forms; purchased R & D Systems
T1 sequence (P15692 27-171 isoform P15692-6 limits assumed): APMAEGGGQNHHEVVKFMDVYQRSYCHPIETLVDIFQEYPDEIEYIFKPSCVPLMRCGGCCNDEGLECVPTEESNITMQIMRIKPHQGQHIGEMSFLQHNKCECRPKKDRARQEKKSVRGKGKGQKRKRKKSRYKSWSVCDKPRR

T2: VEGF-A165 (Homo sapiens, UniProt P15692)
T2 construct: All growth factors (GFs) and chemokines were purchased in their mature forms; purchased PeproTech; host or cells: Escherichia coli
T2 sequence (P15692 27-191 isoform P15692-4 limits assumed): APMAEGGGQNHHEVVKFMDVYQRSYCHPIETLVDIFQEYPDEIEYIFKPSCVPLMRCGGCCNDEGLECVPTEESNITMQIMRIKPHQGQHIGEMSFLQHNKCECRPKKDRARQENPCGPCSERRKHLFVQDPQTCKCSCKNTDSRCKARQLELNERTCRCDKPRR

T3: PlGF-2 (Homo sapiens, UniProt P49763)
T3 sequence (P49763 19-170 isoform P49763-3 limits assumed): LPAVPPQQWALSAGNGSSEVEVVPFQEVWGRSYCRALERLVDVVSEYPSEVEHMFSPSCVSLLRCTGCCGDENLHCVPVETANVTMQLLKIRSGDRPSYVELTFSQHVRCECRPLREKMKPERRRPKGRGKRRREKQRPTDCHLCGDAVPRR


Tests used:
VEGF-A145 = target: T1, VEGF-A145; experiment: vWF binding to recombinant VEGF-A isoforms (ELISA); details: plate coated with 50 nM vWF domains, 1 μg/mL VEGF-A, vs BSA
Experimental: (§1) ELISA was performed as previously reported1. In brief, ELISA plates (med binding: Greiner Bio-One) were coated with 50 nM BSA (GE Healthcare), pro-peptide containing recombinant vWF (Sino Biological), plasma-derived vWF (EMD Millipore), recombinant human vWF A1 domain (U-Protein Express), recombinant human vWF A2 domain (R & D systems), recombinant human vWF A3 domain (U-Protein Express), vWF A1 HBD peptide or scrambled/mutated HBD peptide (all peptides were synthesized by Genscript). After blocking with 2% BSA solution containing PBS-T, 1 μg/mL of recombinant human VEGF-A121 (PeproTech), recombinant human VEGF-A145 (R & D Systems), or recombinant human VEGF-A165 (PeproTech) was added. Bound VEGF-A was detected with 1 μg/mL of mouse anti-human VEGF-A antibody (clone: 26503, R & D systems). After 60 min of incubation, horseradish peroxidase (HRP) conjugated goat anti-mouse antibody (1:2000 dilution, Dako) was added and incubated for another 60 min. Color development and the absorbance measurement were done as described above.

VEGF-A165 [1] = target: T2, VEGF-A165; experiment: vWF binding to recombinant VEGF-A isoforms (ELISA); details: plate coated with 50 nM vWF domains, 1 μg/mL VEGF-A, vs BSA
Experimental: as §1

[2] = Heparin binding to synthesized laminin peptides (ELISA); set-up: key to Interaction with Heparin: ++ indicates high affinities; + indicates medium/low affinities; details: for binding to heparin: ELISA, peptide-coated plate, 10 μg/mL biotinylated heparin; for Interaction with Heparin: summary Table 2
Experimental: (§2) ELISA tests were performed as described above. In brief, ELISA plates were coated with 1 μg/mL of laminin alpha 3 LG domain recombinant protein, laminin alpha 4 LG domain recombinant protein (R&D systems), laminin alpha 5 LG domain recombinant protein (LD BioPharma), or laminin peptide (sequences are described in Table 1, chemically synthesized by Genscript) in PBS for 2 hrs at 37° C. 1 μg/mL of BSA served as non-binding protein control. After blocking with 2% BSA PBS-0.05% Tween 20 (PBS-T) solution, 1 μg/mL of the recombinant human proteins (VEGF-A121, VEGF-A165, PlGF-1, PlGF-2, PDGF-BB or FGF-2) or 10 μg/mL of biotinylated heparin (Sigma-Aldrich) were added. Bound GF was detected with biotinylated antibodies for human VEGF, PlGF, PDGF-BB, or FGF-2 (R&D Systems). The antibodies were detected by streptavidin-HRP (R&D Systems).

GFs = experiment: GF binding to synthesized laminin peptides (ELISA), all tested GFs together; set-up: species or system human; key to Interaction with GFs: ++ indicates high affinities; + indicates medium/low affinities; details: for binding to the tested GFs: ELISA, statement for all tested GFs (VEGF-A, PlGF, PDGF-BB, FGF-2); for Interaction with GFs: summary Table 2
Experimental: as §2

[3] = test system: syndecan-1, syndecan-2, syndecan-3, syndecan-4; experiment: Recombinant syndecan binding to synthesized laminin HBD peptides (ELISA); set-up: species or system human; key to Interaction with Syndecans: ++ indicates high affinities; + indicates medium/low affinities; details: for binding to recombinant syndecans (syndecan 1-4): ELISA, peptide-coated plate, 1 μg/mL syndecan; for Interaction with Syndecans: summary Table 2
Experimental: ELISA tests were performed as described above. In brief, ELISA plates were coated with 1 μg/mL laminin peptide (sequences are described in Table 1, chemically synthesized by Genscript) in PBS for 2 hrs at 37° C. 1 μg/mL of BSA served as non-binding protein control. After blocking with 2% BSA PBS-T solution, 1 μg/mL of the recombinant human syndecan-1, syndecan-2, syndecan-3, syndecan-4 (all syndecan proteins are histidine-tagged; SinoBiological) were added. Bound GF was detected with anti-histidine tag antibody (1:1000 dilution, BioLegend).

VEGF-A165 [4] = target: T2, VEGF-A165; experiment: GF binding to recombinant laminin LG domain protein and synthesized laminin HBD peptides (ELISA); details: plate coated with LG domain protein or peptide, 1 μg/mL GF, vs BSA-coated wells
Experimental: as §2

human lung fibroblasts = experiment: Cell adhesion assay, fibroblasts on laminin peptide coated plates; format: cell-based; set-up: key to Cell adhesion Fibroblasts: ++ indicates high affinities; + indicates medium/low affinities; details: for fibroblast attachment: peptide-coated plates, 30 min at 37° C., without EDTA; for Cell adhesion Fibroblasts: summary Table 2
Experimental: (§3) 96-well plates (non-tissue culture treated, Greiner Bio-one) were pre-coated with 1 μg/mL with laminin HBD peptides in PBS for 2 hrs at 37° C., followed by blocking with 2% BSA PBS for 1 h at RT. Cell adhesion assays were performed using human lung fibroblasts (Lonza) in FGM-2 medium (Lonza) or human umbilical vein endothelial cells (HUVEC; Lonza) in EGM-2 medium (Lonza) supplemented with 1% fetal bovine serum (FBS) and […] VEGF-A165, with or without 5 mM EDTA (Sigma-Aldrich). Cells were plated at 3000 cells/well on laminin peptide pre-coated plates and incubated for 30 min at 37° C., 5% CO2. Then, the medium was removed, and wells were quickly washed three times with PBS. Cell numbers were quantified using a CyQUANT assay, according to the manufacturer's instructions (Invitrogen). All cell lines were checked for mycoplasma contamination and used in passages from 5 to 8.

PDGF-BB = target: T4, PDGF-BB (Homo sapiens, UniProt P01127); experiment: GF binding to recombinant laminin LG domain protein and synthesized laminin HBD peptides (ELISA); details: plate coated with LG domain protein or peptide, 1 μg/mL GF, vs BSA-coated wells
T4 construct: All growth factors (GFs) and chemokines were purchased in their mature forms; purchased PeproTech; host or cells: Escherichia coli
T4 sequence (P01127 82-190 limits assumed): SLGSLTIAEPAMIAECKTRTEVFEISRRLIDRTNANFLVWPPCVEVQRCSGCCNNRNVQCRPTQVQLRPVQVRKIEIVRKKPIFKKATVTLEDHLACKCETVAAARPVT
Experimental: as §2

FGF-2 = FGF-2 (Homo sapiens, UniProt P09038); experiment: as above; set-up: All growth factors (GFs) and chemokines were purchased in their mature forms; purchased PeproTech; host or cells: Escherichia coli; details: plate coated with LG domain protein or peptide, 1 μg/mL GF, vs BSA-coated wells
FGF-2, sequence (P09038 143-288): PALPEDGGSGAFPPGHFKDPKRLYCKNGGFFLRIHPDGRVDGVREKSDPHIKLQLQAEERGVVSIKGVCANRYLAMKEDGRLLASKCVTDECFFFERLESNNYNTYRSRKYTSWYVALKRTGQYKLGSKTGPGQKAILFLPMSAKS
Experimental: as §2

PlGF-2 = target: T3, PlGF-2; experiment: as above; set-up: All growth factors (GFs) and chemokines were purchased in their mature forms; purchased PeproTech; host or cells: Escherichia coli; details: plate coated with LG domain protein or peptide, 1 μg/mL GF, vs BSA-coated wells
Experimental: as §2

HUVEC = experiment: Cell adhesion assay, HUVEC on laminin peptide coated plates; format: cell-based, human; set-up: key to Cell adhesion HUVECs: ++ indicates high affinities; + indicates medium/low affinities; details: for HUVEC attachment: peptide-coated plates, 30 min at 37° C., without EDTA; for Cell adhesion HUVECs: summary Table 2
Experimental: as §3

Molecule	binding to VEGF-A145 (VEGF-A145)	binding to VEGF-A165 (VEGF-A165 [1])	binding to heparin [2]	binding to the tested GFs (GFs)	binding to recombinant syndecans (syndecan 1-4) [3]	Interaction with Syndecans [3]	binding to VEGF-A165 (VEGF-A165 [4])	Interaction with GFs (GFs)	fibroblast attachment (human lung fibroblasts)	Cell adhesion Fibroblasts (human lung fibroblasts)	Interaction with Heparin [2]	binding to PDGF-BB (PDGF-BB)	binding to FGF-2 (FGF-2)	binding to PlGF-2 (PlGF-2)	HUVEC attachment (HUVEC)	Cell adhesion HUVECs (HUVEC)
A3: recombinant human vWF A3 domain (U-Protein Express)	no binding	no binding														
ARKASRRSRQPARH [α53312-3325, laminin α5 chain linker peptide, 14 aa]			did not bind to heparin	did not show particular binding to any tested GF	weak binding	+										
KNSFMALYLSKGR [α33031-3043, laminin α3 chain LG4-derived peptide, 13 aa]			non-heparin binding		weak binding	+	bound	+	enhancement of fibroblast attachment	+						
PLFLLHKKGKNLSKPKASQNKKGGKSK [α41408-1434, laminin α4 chain linker peptide, 27 aa]			bound to heparin		significant binding	++	bound	++			++	bound	bound	bound		
PPFLMLLKGSTRFNKTKTFR [α32932-2951, laminin α3 chain LG3-LG4 linker peptide, 20 aa]			bound to heparin		weak binding	+	preferentially bound	+	enhancement of fibroblast attachment	+	++		preferentially bound		promoted HUVEC attachment	+
RQRSRPGRWHKVSVRWEKNR [α53417-3436, laminin α5 chain LG4-derived peptide, 20 aa]			bound to heparin		significant binding	++	bound	++	enhancement of fibroblast attachment	+	++	bound	bound	bound		
TLFLAHGRLVYMFNVGHKKLKIR [α41521-1543, laminin α4 chain LG4-derived peptide, 23 aa]			bound to heparin		significant binding	++		+	enhancement of fibroblast attachment	+	++	not statistically significant			promoted HUVEC attachment	+
TLPDVGLELEVR [α53539-3550, laminin α5 chain LG5-derived peptide, 12 aa]			did not show binding to heparin; also recorded: non-heparin binding	significantly bound to all tested GFs	did not show binding			+								
TPGLGPRGLQATARKASRRSRQPARHPACML [α53300-3330, laminin α5 chain linker peptide, 31 aa]			bound to heparin		significant binding	++	preferentially bound	+			++			preferentially bound		
pro-peptide-containing recombinant vWF: immature, pro-peptide containing recombinant vWF (Sino Biological)		bind														
vWF A2: recombinant human vWF A2 domain (R & D systems) (protein) DVAFVLEGSDKIGEADFNRSKEFMEEVIQRMDVGQDSIHVTVLQYSYMVTVEYPFSEAQSKGDILQRVREIRYQGGNRTNTGLALRYLSDHSFLVSQGDREQAPNLVYMVTGNPASDEIKRLPGDIQVVPIGVGPNANVQELERIGWPNAPILIQDFETLPREAPDLV	no binding	no binding														
